Source: patent publication US4247542A, “A-40104 Antibiotics and process for production thereof” (priority 1978, dated 1981)
Converted amounts (≈) assume the structure as drawn.

Key:
[1] = system: Pasteurella multocida (turkey); assay: standard in vitro test against Pasteurella; type: cell-based
Excerpt: Another veterinary aspect of this invention is the activity of the A-40104 antibiotics against Pasteurella species. P. multocida, for example, is a causative agent of respiratory infection in cattle, poultry, and swine. P. hemolytica is a major cause of respiratory disease in cattle. The activity of A-40104 factor A and its dihydro derivative against Pasteurella, as determined by standard in vitro tests, is summarized in Table X.

Spiroplasma citri = assay: in vitro test against Spiroplasma citri; type: cell-based; details: levels as low as, read-out: level inhibiting S. citri
Excerpt: Another important aspect of this invention is the activity of the A-40104 antibiotics against Spiroplasmas. Spiroplasma citri is the causative agent of citrus-stubborn disease; another Spiroplasma, corn-stunt Spiroplasma, affects the growth of corn. In in vitro tests against Spiroplasma citri A-40104 factor A and its dihydro derivative inhbit S. citri when applied at levels as low as 0.01 ppm.

Eubacterium aerofaciens = assay: standard agar-dilution test, anaerobic bacteria; type: cell-based; details: Collinsella aerofaciens, read after 24 hours
Excerpt: Table VIII summarizes the activity of A-40104 factor A, as determined by the standard agar-dilution test.
*MIC determined by the agardilution method. Endpoints were read after 24

Mycoplasma gallisepticum = assay: in vitro broth-dilution MIC, mycoplasma; type: cell-based
Excerpt: (§1) The minimal inhibitory concentrations (MIC's) of A-40104 factor A; 19,20-dihydro-A-40104 factor A; and the tetraacetyl derivative of A-40104A against various mycoplasma species, as determined by in vitro broth-dilution studies, are summarized in Table IX.

Mycoplasma synoviae = assay: in vitro broth-dilution MIC, mycoplasma; type: cell-based
Excerpt: as §1

powdery mildew [2] = assay: control of powdery mildew on bean plants; type: in vivo; details: soil drench at 100 ppm
Excerpt: (§2) The A-40104 antibiotics are also active against plant pathogens. […] The systemic activity of these antibiotics is especially advantageous in the control of plant pathogens or Spiroplasmas.

powdery mildew [3] = assay: control of powdery mildew on barley plants; type: in vivo; details: soil drench at 100 ppm
Excerpt: as §2

swine dysentery = details: W. E. Brown et al. U.S. Pat. No. 4,041,175; cited from earlier work

| SMILES | MIC [1] | MIC (Spiroplasma citri) | MIC (Eubacterium aerofaciens) | MIC (Mycoplasma gallisepticum) | MIC (Mycoplasma synoviae) | control of powdery mildew (powdery mildew [2]) | control of powdery mildew (powdery mildew [3]) | solubility in chloroform (solubility; chloroform) | solubility in alcohols (solubility; ethanol) | solubility in alcohols (solubility; methanol) | solubility in water (solubility; water) | effect in swine dysentery (swine dysentery) |
| --- | --- | --- | --- | --- | --- | --- | --- | --- | --- | --- | --- | --- |
| CCC1(C)CC(OC(=O)CO[C@@H]2OC[C@@H](O)[C@H](O)[C@H]2O)C2(C)C(C)CCC3(CCC(=O)C32)C(C)C1O (stereo partly shown) [19,20-dihydro-A-40104 factor A, 19,20-Dihydro-A-40104 Factor A] | 12.5 µg/mL (≈ 24.4 µM) | ≤ 0.01 µg/mL |  |  |  |  |  |  |  |  |  |  |
| C=CC1(C)CC(OC(=O)CO[C@@H]2OC[C@@H](O)[C@H](O)[C@H]2O)C2(C)C(C)CCC3(CCC(=O)C32)C(C)C1O (stereo partly drawn) [A-40104 factor A, β,D-xylopyranosyl acetal derivative of pleuromutilin] | 12.5 µg/mL (≈ 24.5 µM) |  | 16 µg/mL (≈ 31.3 µM) | < 0.78 µg/mL | < 0.78 µg/mL | control of powdery mildew is obtained | control of powdery mildew is obtained | partially soluble | soluble | soluble | insoluble |  |
| C=C[C@]1(C)C[C@@H](OC(=O)CO)[C@]2(C)[C@H](C)CC[C@]3(CCC(=O)[C@H]32)[C@@H](C)[C@@H]1O [A-40104 factor C, pleuromutilin] |  |  |  |  |  |  |  |  |  |  |  | effective in the treatment of swine dysentery |
